Data taken from patent publication US11944601B2, “Applications of ellagic acid in preparation of immunomodulatory medicines for treatment of neuromyelitis optica or immune rejection after skin transplantation” (priority 2022, dated 2024).

Tests used:
EAE mice [1] = assay: EAE mice, spinal cord pathological sections (H&E, LFB, MBP staining); format: in vivo; conditions: for demyelination of white matter of spinal cord (LFB) / infiltration of spinal cord inflammatory cells (H&E): day 20 p.i., EA lumbosacral, URA cervical enlargement of spinal cord
IFN-γ and IL-17 = assay: Skin transplantation model, ELISA of splenocyte culture supernatant; format: in vivo, mice
Method: (§1) The donor BALB/c mice were sacrificed, the dorsal hair was removed with a shaver. Appropriately sized skin grafts were cut, peeled off, washed, immersed in sterilized saline containing antibiotics for 5 minutes, and finally stored on ice for backup. The receptor C57BL/6 mice were intraperitoneally injected with 0.5% of pentobarbital sodium injection according to the body weight of 0.15 mL/20 g. After the mice were anesthetized, they were fixed on a surgical plate, the mid-dorsal parts of the mice body slightly to the lefts were selected as operation areas. Mice were shaved and disinfected with 75% alcohol to prepare graft beds. The prepared donor skin sheet was placed on the predetermined transplantation bed of recipient mice and then flattened. The skin patch was sutured to the transplant bed by discontinuous suture with 6-0 sutures. The recipient mice were administered therapeutic medicines from the day of surgery. […] The spleens of the receptor mice were taken on the 7th day to isolate single cells for flow cytometer detection. The supernatant of splenocytes was collected for enzyme-linked immunosorbent assay (ELISA).

[2] = tested on: Th1, Th17 and Treg cells in the peripheral immune system; assay: Skin transplantation model, spleen cells of receptor mice by flow cytometry; format: in vivo; conditions: day 7, cultured 72 hours
Method: as §1

[3] = tested on: skin transplantation model; assay: Skin transplantation model, H&E staining of skin grafts; format: in vivo; conditions: BALB/c skin on C57BL/6 mice
colitis mice = assay: DSS-induced acute colitis in mice; format: in vivo; conditions: 100 mg/kg/d, 2.5% DSS 7 days
Method: The mice were randomly divided into control group and EA treatment group. 2.5% (w/v) of dextran sodium sulfate (DSS) was added to drinking water continuously for 7 days to induce acute colitis, and mice in the treatment group were fed 100 mg/kg/d EA. During the experiment, mice were weighed regularly every day and the percentage change was calculated. In addition, the feces characteristics of mice were observed every day and divided into three grades according to the methods of Berberat et al. 1: normal, 2: increased stool viscosity and easily dispersed, 3: watery diarrhea. Moreover, hidden blood of mouse feces was measured by pyramidon method. If the mouse feces contained reddish-brown or bright red blood visible to the naked eye, it was determined as fecal blood. Finally, the disease activity index (DAI) of mice was calculated according to the scoring criteria of Berberat et al. The whole segment of colon from anus to the end of cecum of mice was taken, the length was measured and photographed for recording.

EAE mice [4] = assay: EAE mice, CNS-infiltrating mononuclear cells by flow cytometry; format: in vivo
Method: EAE mice were randomly divided into EA groups and URA groups. EA groups were divided into blank control group, fingolimod (FTY-720) positive control group (0.1 mg/kg) and EA administration group (0.1 mg/kg). URA groups were divided into blank control group and URA administration group (25 mg/kg). To induce EAE, mice were immunized at two sites on the back with 200 μg of myelin oligodendrocyte glycoprotein peptide 35-55 (MOG35-55) (Genescript) in 200 μL of emulsion containing 50% complete Freund's adjuvant with 5 mg/ml Mycobacterium tuberculosis H37Ra (Difco). All mice were i.p. injected with 200 ng pertussis toxin (Sigma-Aldrich) in PBS on days 0 and 2 postimmunization (p.i.). Ellagic acid (EA) and its metabolic derivative URA were purchased from Ark Pharm, Inc and respectively administered to EAE mice on the day of immunization, the 11th day p.i and the 17th day p.i.
Mice were sacrificed at day 20 p.i. Approximately 0.5 cm of the lumbosacral enlarged spinal cord was removed from the sacrificed mouse and fixed in 4% (w/v) paraformaldehyde. […]
For flow cytometry surface marker staining, the cells were incubated with surface-stained fluorescent microsphere-coupled antibodies or isotype control antibodies on ice for 30 min. […] Data were further detected by flow cytometry and analyzed by Flowjo software (Treestar, Ashland, OR).

Th17 cells = assay: Th17 polarization of spleen cells in vitro, flow cytometry; format: cell-based, mice; conditions: for polarization of Th17 cells: 3 days; for polarization of Th17 cells / Th1 cells (IFN-γ): flow cytometry; for inhibitory effect on Th17 / IL17 at 5 μM compared with the lower concentration: 5 μM vs 2.5 μM (EA) or 1 μM (URA)
Method: (§2) Single-cell suspension of spleen isolated from normal female C57BL/6 mice (aged 8-10 weeks) was co-cultured with anti-CD3 (0.5 μg/mL), anti-CD28 (1 μg/mL), TGF-β (2 ng/mL), IL-6 (20 ng/mL), IL-1 β (10 ng/mL), anti-IL-4 (10 μg/mL) and anti-IFN-γ (10 μg/mL) for 3 days to induce differentiation into Th17 cells. Cells were cultured with anti-CD3 (0.5 μg/mL), anti-CD28 (1 μg/mL), TGF-β (2 ng/mL) and IL-2 (10 ng/ml) for 3 days to induce differentiation into Treg cells. Cytokines were detected by flow cytometry.

Treg cells = assay: Treg polarization in vitro, flow cytometry; format: cell-based, mice; conditions: 0.5-2 μM, 3 days
Method: as §2

[5] = tested on: NMO-IgG induced cerebral lesion in mice; assay: NMO-IgG induced cerebral lesion in mice, AQP4 and MBP staining of brain slices; format: in vivo; conditions: 2 mg/kg/d from three days before surgery; fifth day of modeling
Text: Female C57BL/6 mice aged 6-8 weeks were purchased from Air Force Military Medical University (Xi'an, China). Mice were fed under standard light and temperature conditions. All experimental procedures and protocols were approved by the institutional animal ethics Committee of Shaanxi Normal University and carried out in accordance with the approved institutional guidelines and regulations.
WO mice were randomly divided into control group and EA group. In order to induce WO, mice were first anesthetized with 10% (w/v) of chloral hydrate and installed on a brain stereotactic apparatus (RWD Life Science), then the mouse scalp was cut along the midline, a small hole with a diameter of 1 mm was drilled on the skull 2 mm on the right side of the anterior fontanelle, and finally 5 μL microinjector (Hamilton) was inserted 3 mm deep and 2 μL of NMO-IgG and 3 μL of complement were injected at a rate of 1 μL/min. EA (2 mg/kg/d) and control solvents were administered to WO mice three days before surgery.
The mice were sacrificed on the fifth day of modeling. The brain tissue was removed from the mice and fixed in 4% (w/v) of paraformaldehyde. The frozen sections were stained with AQP4 and MBP.

EAE mice [6] = assay: EAE mice, clinical scores; format: in vivo; conditions: for EAE clinical score / course of disease: administered from day 0 of immunization (prevention stage); for EAE clinical score / course of disease / EAE clinical score / development of EAE: EA intraperitoneally, URA 25 mg/kg
[7] = tested on: IL-17 family-related genes; assay: RT-qPCR of Th17-related genes in naïve CD4+ T cells under Th17 polarizing conditions; format: cell-based, mice; conditions: 4 h, vs PBS
Method: Total RNA was extracted by using RNAprep Pure Cell/Tissue Kit (TIANGEN) and then reverse transcribed with Hiscript QRT Supermix (Vazyme) according to the manufacturer's instructions. mRNA expression was determined by real-time quantitative PCR using 2×ChamQ™ SYBR® qPCR Master Mix (Vazyme). Data was quantitatively analyzed on Roche Molecular Biochemicals Light Cycler Software Version 3.5. Mouse GAPDH gene was used as endogenous control for sample normalization.

[8] = administered from onset stage (day 11 p.i.)
[9] = administered from peak period (day 17 p.i.)

## O=c1oc2c(O)c(O)cc3c(=O)oc4c(O)c(O)cc1c4c23 [EA, ellagic acid]
EAE mice [1]
  demyelination of white matter of spinal cord (LFB): significantly attenuated
  infiltration of spinal cord inflammatory cells (H&E): significantly attenuated
IFN-γ and IL-17
  content of IFN-γ in supernatant of splenocytes: significantly reduced
  content of IL-17 in supernatant of splenocytes: significantly reduced
  effect on IFN-γ and IL-17 content compared with CsA: better than that of CsA
[2]
  Th1 inflammatory cells: significantly inhibited
  Th17 inflammatory cells: significantly inhibited
  proportion of anti-inflammatory cell Treg: increased
[3]
  infiltration of inflammatory cells in the grafted skin: significantly inhibited
Colitis mice
  colon length: significantly restored
Colitis mice; vs DSS control group
  DAI score: decreased significantly
  percentage of weight loss: significantly lower
EAE mice [4]
  absolute number of CD45+, CD45+CD4+, CD4+IL-17+, CD4+IFN-γ+ and CD4+GM-CSF+ cells infiltrating into the CNS: significantly reduced
  absolute number of pro-inflammatory microglia and macrophages infiltrating into CNS (CD45high+CD11b+, CD45low+CD11b+, CD11b+MHC II+, CD11b+TNF-α+, CD11b+Nos2+): decreased
Th17 cells; 2.5 μM
  polarization of Th17 cells: significantly inhibited
Th17 cells
  inhibitory effect on Th17 / IL17 at 5 μM compared with the lower concentration: better
Th17 cells; 5 μM
  polarization of Th17 cells: significantly inhibited
Treg cells
  polarization of naïve CD4+T towards Treg: promote the polarization of naïve CD4+T towards Treg in a dose-dependent manner
[5]
  AQP4 protein loss rate: lower than that in control group
  degree of demyelination (MBP): decreased
EAE mice [6]; EA 0.1 mg/kg vs FTY-720 0.1 mg/kg
  therapeutic effect in EAE compared with fingolimod (FTY-720): equivalent
EAE mice [6]
  EAE clinical score / course of disease: inhibited the course of disease
EAE mice [6]; [8]
  EAE clinical score / development of EAE: significantly inhibited
EAE mice [6]; [9]
  EAE clinical score / development of EAE: significantly inhibited
EAE mice [6]; oral administration from day 0 of immunization, dosage 250 times that of injection
  progress of EAE disease: effectively alleviate the progress of the disease

## O=c1oc2cc(O)ccc2c2ccc(O)cc12 [URA, urolithin A]
EAE mice [1]; compared with control mice
  proportion of intact myelin sheath in the spinal cord (MBP): significantly increased
EAE mice [1]
  demyelination of white matter of spinal cord (LFB): significantly relieved
  infiltration of spinal cord inflammatory cells (H&E): significantly relieved
Th17 cells; 1 μM and 5 μM
  dose dependence of inhibition on IFN-γ: no dose-dependent inhibition
Th17 cells; 1 μM
  polarization of Th17 cells: significantly inhibited
  Th1 cells (IFN-γ): significantly inhibited
Th17 cells
  inhibitory effect on Th17 / IL17 at 5 μM compared with the lower concentration: more significantly
Th17 cells; 5 μM
  polarization of Th17 cells: significantly inhibited
  Th1 cells (IFN-γ): significantly inhibited
[7]
  expression level of IL-17 family-related genes: decreased
  expression of Foxp3: promoted the expression of Foxp3 to a certain extent
EAE mice [6]
  EAE clinical score / course of disease: reduced the clinical scores
EAE mice [6]; [8]
  EAE clinical score / development of EAE: reduced the clinical scores
EAE mice [6]; [9]
  EAE clinical score / development of EAE: reduced the clinical scores
